Assay [1] relates to Oli Neu oligodendrocyte cell line. The assay can be described thus: Oli Neu oligodendrocyte cell death, PI flow cytometry. In kind it is cell-based, murine. The settings on record: 0.5 μM; 18 hour exposure. The text has this: KLK6 polypeptides promoted the survival of murine oligodendrocytes in a dose dependent fashion. […] Cell death was detected by PI labeling and quantitatively analyzed by flow cytometry.
(A flow cytometer gives signals particle by particle.)

The subject of assay [2] is U251 human glioblastoma cell line. The assay can be described thus: U251 glioblastoma cell death / apoptosis by flow cytometry. The format is cell-based. Conditions: 1 μM. On the procedure: The percent of cells labeled with propidium iodide (PI) after 24 hour exposure to staurosporine (1 μM) shown in histogram (FIG. 15A) was quantified by flow cytometry (FIG. 15B) and is taken as a measure of cell death. All samples were treated and analyzed in triplicate.
Levels of live (Annexin V− and Propidium iodide− (PI−)), early apoptotic (Annexin V+ and PI−), or dead (Annexin V+ and PI+) cells were determined by flow cytometry after a 24 hour period of exposure to 1 μM staurosporine (FIG. 16B) or staurosporine in the presence of 10 μg/mL KLK6 (FIG. 16C).
Dead cells were detected by labeling with 7-AAD. […] All expression data were normalized to the constitutively expressed gene GAPDH (*P<0.05, Students t-test).
KLK6 polypeptides promoted the survival of human glioma cells. […] Cell death was measured by flow cytometric detection of propidium iodide labeling.

In assay [3] the test system is murine splenocytes. Put plainly: Murine splenocyte/lymphocyte cell death, PI labeling by flow cytometry. The format is cell-based. The settings on record: resting conditions; 1 or 10 μg/mL at plating; 24 and 72 hours. The text has this:
The effect of KLK6 polypeptides on immune cell survival was examined using whole splenocyte populations derived from C57BL6/J or PAR1 deficient mice or using the Jurkat T-leukemic cell line (clone E6-1, TIB-152 American Type Culture Collection). Eight to 12 week old C57 mice were obtained from Jackson Laboratories. Mice deficient in PAR1^-/- (B6.129S4-[…]^tm1Ajc/J) were also obtained from Jackson and backcrossed to C57BL6/J for 10 generations such that C57 mice served as wild type controls in each experiment. Spleens were homogenized in RPMI-1640, red blood cells lysed with ammonium chloride buffer, and splenocytes cultured in tissue culture treated 96 well plates at a density of 7.5×10^5 cells/mL. All experiments were performed in serum free X-Vivo media (Lonza, Mapleton, Ill.) containing 2 mM Glutamax, 1 mM sodium pyruvate, 50 U/mL penicillin-streptomycin, 10 mM HEPES, 50 μM 2-β-mercaptoethanol, and 10 μM non-essential amino acids (Invitrogen). Jurkat T cells were maintained in log-phase growth in the same defined media. The cells were maintained at 37° C. in 95% air and 5% CO2. […] Cells were analyzed by flow cytometry using a FACSCalibur flow cytometer (BD Biosciences, Mountain View, Calif.). […] FlowJo software (Ashland, Oreg.) was used to quantify different cell populations in flow cytometry experiments. […]

Assay [4] relates to murine splenocytes. Put plainly: Splenocyte proliferation, CFSE labeling by flow cytometry. The format is cell-based.

With `CN[C@@H]1C[C@H]2O[C@@](C)([C@@H]1OC)n1c3ccccc3c3c4c(c5c6ccccc6n2c5c31)C(=O)NC4` [staurosporine], the “cell death induced by staurosporine” value in assay [1] is recorded as “shown to promote death of the Oli Neu oligodendrocyte cell line”; in assay [2], “induced a considerable increase in cell death”.

In the case of “KLK1 polypeptides: recombinant kallikrein family member KLK1, produced in an identical fashion to KLK6”, in the assay on murine splenocytes [3], the “cell death / cell survival” value is “did not significantly impact cell survival”. The “percent of divided cells” value in the assay with murine splenocytes [4] (10 μg/mL, 24 hours post-stimulation) was “significant increase in the percent of divided cells”. Further, the proliferation result with murine splenocytes [4] (lower concentrations, or 72 hours post-exposure) is listed as “Significant differences in proliferation were not seen”.

Values taken from US8530427B2, “Methods for modulating resistance to apoptosis using KLK6” (Mayo Foundation for Medical Education and Research, priority 2010, dated 2013).
